Reference: US20240024273A1, “TOPICAL ADMINISTRATION OF 2-(DIETHYLAMINO)ETHYL 2-(4-ISOBUTYLPHENYL)PROPRIONATE FOR TREATMENT OF DISEASES” (TECHFIELDS PHARMA CO., LTD., priority 2020, published 2024)

Tested on: Subjects with Osteoarthritis of the Knee
Test: Second Phase 2 study: safety (treatment-emergent adverse events)
Format: in vivo, human
Design: Serious Treatment-emergent Adverse Event: SAE Criteria: scale not given here
Excerpt: Safety assessments will be performed at each visit and will include assessment of AEs, vital signs (blood pressure, pulse rate, and oral temperature), clinical laboratories, physical examination, skin irritation, and electrocardiograms (ECGs) as indicated in the study flow chart, Table 47.
Safety assessments will include AEs, vital signs (blood pressures, pulse rate, and oral temperature), clinical laboratories, physical examination, skin irritation, and ECGs at various time points during the study as indicated in the study flow chart.
Adverse events of interest include: local skin reactions around the treated knee(s), upper stomach pain, GI bleeding, serious cardiovascular side effects (e.g., thrombotic events, myocardial infarction, or stroke), jaundice, elevated liver function tests, and nausea.
Safety analyses will be conducted on the SAS. Safety parameters will be listed and summarized using standard descriptive statistics, as appropriate. No formal statistical analyses are planned.

[1] = 4.375 mg, BID, subject 105/07/F64, abdominal aortic aneurysm
[2] = 8.75 mg, BID, subject 279/08/M66, Transient Ischemic Attack

SMILES: CCN(CC)CCOC(=O)C(C)c1ccc(CC(C)C)cc1 (stereo not drawn) [2-(diethylamino)ethyl 2-(4-isobutylphenyl)propionate]
- Serious Treatment-emergent Adverse Event (4.375 mg, BID, subject 105/07/F64, [aortic aneurysm] (Blood and Lymphatic System Disorders)): abdominal aortic aneurysm
- Serious Treatment-emergent Adverse Event: Relationship to Study Drug [1]: Unrelated
- Serious Treatment-emergent Adverse Event: SAE Criteria [1]: 1
- Serious Treatment-emergent Adverse Event: Severity [1]: Severe
- Serious Treatment-emergent Adverse Event: Outcome (4.375 mg, BID, subject 105/07/F64, abdominal aortic aneurysm, cell wraps: Results / in / Death): Death
- GI disorders incidence rate (4.375 mg/knee BID): 4.2%
- incidence rate of AEs possibly, probably, or definitely related to study drug (4.375 mg/knee BID): 33.8%
- infections and infestations incidence rate (4.375 mg/knee BID): 32.4%
- positive fecal occult blood test incidence rate (4.375 mg/knee BID): 7.0%
- Abdominal Pain Upper: number of adverse events (4.375 mg/knee, BID, N = 71): 1
- Abdominal Pain Upper: percentage of subjects with adverse events (4.375 mg/knee, BID, N = 71): 1.4%
- Abdominal Pain Upper: subjects with adverse events (4.375 mg/knee, BID, N = 71): 1
- Administration Site Conditions: number of adverse events (4.375 mg/knee, BID, N = 71): 1
- Administration Site Conditions: percentage of subjects with adverse events (4.375 mg/knee, BID, N = 71): 1.4%
- Administration Site Conditions: subjects with adverse events (4.375 mg/knee, BID, N = 71): 1
- Alanine Aminotransferase Increased: number of adverse events (4.375 mg/knee, BID, N = 71): 1
- Alanine Aminotransferase Increased: percentage of subjects with adverse events (4.375 mg/knee, BID, N = 71): 1.4%
- Alanine Aminotransferase Increased: subjects with adverse events (4.375 mg/knee, BID, N = 71): 1
- Application Site Irritation: number of adverse events (4.375 mg/knee, BID, N = 71): 1
- Application Site Irritation: percentage of subjects with adverse events (4.375 mg/knee, BID, N = 71): 1.4%
- Application Site Irritation: subjects with adverse events (4.375 mg/knee, BID, N = 71): 1
- Aspartate Aminotransferase Increased: number of adverse events (4.375 mg/knee, BID, N = 71): 3
- Aspartate Aminotransferase Increased: percentage of subjects with adverse events (4.375 mg/knee, BID, N = 71): 4.2%
- Aspartate Aminotransferase Increased: subjects with adverse events (4.375 mg/knee, BID, N = 71): 3
- Back Pain: number of adverse events (4.375 mg/knee, BID, N = 71): 1(%)[1]
- Back Pain: subjects with adverse events, number (percentage) (4.375 mg/knee, BID, N = 71): 1(%)[1]
- Blood Alkaline Phosphatase Increased: number of adverse events (4.375 mg/knee, BID, N = 71): 1
- Blood Alkaline Phosphatase Increased: percentage of subjects with adverse events (4.375 mg/knee, BID, N = 71): 1.4%
- Blood Alkaline Phosphatase Increased: subjects with adverse events (4.375 mg/knee, BID, N = 71): 1
- Blood Bilirubin Increased: number of adverse events (4.375 mg/knee, BID, N = 71): 1
- Blood Bilirubin Increased: percentage of subjects with adverse events (4.375 mg/knee, BID, N = 71): 1.4%
- Blood Bilirubin Increased: subjects with adverse events (4.375 mg/knee, BID, N = 71): 1
- Contusion: number of adverse events (4.375 mg/knee, BID, N = 71): 2
- Contusion: subjects with adverse events, number (percentage) (4.375 mg/knee, BID, N = 71): 2(2.8%)
- Cough: number of adverse events (4.375 mg/knee, BID, N = 71): 1
- Cough: subjects with adverse events, number (percentage) (4.375 mg/knee, BID, N = 71): 1(1.4%)
- Ear Pain: number of adverse events (4.375 mg/knee, BID, N = 71): 1(%)[1]
- Ear Pain: subjects with adverse events (4.375 mg/knee, BID, N = 71): 1(%)[1]
- Ear and Labyrinth Disorders: number of adverse events (4.375 mg/knee, BID, N = 71): 1
- Ear and Labyrinth Disorders: percentage of subjects with adverse events (4.375 mg/knee, BID, N = 71): 1.4%
- Ear and Labyrinth Disorders: subjects with adverse events (4.375 mg/knee, BID, N = 71): 1
- Fall: number of adverse events (4.375 mg/knee, BID, N = 71): 1
- Fall: subjects with adverse events, number (percentage) (4.375 mg/knee, BID, N = 71): 1(1.4%)
- Frequency of Positive Fecal Occult Blood Test (4.375 mg/knee, BID, N = 71): 6
- Gamma-Glutamyltransferase Increased: number of adverse events (4.375 mg/knee, BID, N = 71): 2
- Gamma-Glutamyltransferase Increased: percentage of subjects with adverse events (4.375 mg/knee, BID, N = 71): 2.8%
- Gamma-Glutamyltransferase Increased: subjects with adverse events (4.375 mg/knee, BID, N = 71): 2
- Gastrointestinal Disorders: number of adverse events (4.375 mg/knee, BID, N = 71): 3
- Gastrointestinal Disorders: percentage of subjects with adverse events (4.375 mg/knee, BID, N = 71): 4.2%
- Gastrointestinal Disorders: subjects with adverse events (4.375 mg/knee, BID, N = 71): 3
- Headache: number of adverse events (4.375 mg/knee, BID, N = 71): 1
- Headache: subjects with adverse events, number (percentage) (4.375 mg/knee, BID, N = 71): 1(1.4%)
- Hypercholesterolaemia: number of adverse events (4.375 mg/knee, BID, N = 71): 1
- Hypercholesterolaemia: percentage of subjects with adverse events (4.375 mg/knee, BID, N = 71): 1.4%
- Hypercholesterolaemia: subjects with adverse events (4.375 mg/knee, BID, N = 71): 1
- Hypertension: number of adverse events (4.375 mg/knee, BID, N = 71): 1
- Hypertension: percentage of subjects with adverse events (4.375 mg/knee, BID, N = 71): 1.4%
- Hypertension: subjects with adverse events (4.375 mg/knee, BID, N = 71): 1
- Hypertriglyceridemia: number of adverse events (4.375 mg/knee, BID, N = 71): 6
- Hypertriglyceridemia: percentage of subjects with adverse events (4.375 mg/knee, BID, N = 71): 7.0%
- Hypertriglyceridemia: subjects with adverse events (4.375 mg/knee, BID, N = 71): 5
- Infections and Infestations: number of adverse events (4.375 mg/knee, BID, N = 71): 24
- Infections and Infestations: subjects with adverse events, number (percentage) (4.375 mg/knee, BID, N = 71): 23(32.4%)
- Influenza: number of adverse events (4.375 mg/knee, BID, N = 71): 3
- Injury, Poisoning and Procedural Complications: number of adverse events (4.375 mg/knee, BID, N = 71): 3
- Investigations: number of adverse events (4.375 mg/knee, BID, N = 71): 11
- Investigations: percentage of subjects with adverse events (4.375 mg/knee, BID, N = 71): 15.5%
- Investigations: subjects with adverse events (4.375 mg/knee, BID, N = 71): 11
- Metabolism and Nutrition Disorders: number of adverse events (4.375 mg/knee, BID, N = 71): 7
- Metabolism and Nutrition Disorders: percentage of subjects with adverse events (4.375 mg/knee, BID, N = 71): 8.5%
- Metabolism and Nutrition Disorders: subjects with adverse events (4.375 mg/knee, BID, N = 71): 6
- Musculoskeletal Pain: number of adverse events (4.375 mg/knee, BID, N = 71): 1(%)[1]
- Musculoskeletal Pain: subjects with adverse events, number (percentage) (4.375 mg/knee, BID, N = 71): 1(%)[1]
- Musculoskeletal and Connective Tissue Disorders, Overall Total: number of adverse events (4.375 mg/knee, BID, N = 71): 3
- Neck Pain: number of adverse events (4.375 mg/knee, BID, N = 71): 1(%)[1]
- Neck Pain: subjects with adverse events, number (percentage) (4.375 mg/knee, BID, N = 71): 1(%)[1]
- Nervous System Disorders: number of adverse events (4.375 mg/knee, BID, N = 71): 1
- Nervous System Disorders: subjects with adverse events, number (percentage) (4.375 mg/knee, BID, N = 71): 1(1.4%)
- Oropharyngeal Pain: number of adverse events (4.375 mg/knee, BID, N = 71): 2
- Oropharyngeal Pain: subjects with adverse events, number (percentage) (4.375 mg/knee, BID, N = 71): 2(1.4%)
- Rash: number of adverse events (4.375 mg/knee, BID, N = 71): 1
- Rash: percentage of subjects with adverse events (4.375 mg/knee, BID, N = 71): 1.4%
- Rash: subjects with adverse events (4.375 mg/knee, BID, N = 71): 1
- Respiratory, Thoracic and Mediastinal Disorders: number of adverse events (4.375 mg/knee, BID, N = 71): 6
- Respiratory, Thoracic and Mediastinal Disorders: subjects with adverse events, number (percentage) (4.375 mg/knee, BID, N = 71): 6(8.5%)
- Rhinorrhoea: number of adverse events (4.375 mg/knee, BID, N = 71): 1
- Rhinorrhoea: subjects with adverse events, number (percentage) (4.375 mg/knee, BID, N = 71): 1(1.4%)
- Skin Irritation: number of adverse events (4.375 mg/knee, BID, N = 71): 1
- Skin Irritation: percentage of subjects with adverse events (4.375 mg/knee, BID, N = 71): 1.4%
- Skin Irritation: subjects with adverse events (4.375 mg/knee, BID, N = 71): 1
- Skin and Subcutaneous Tissue Disorders: number of adverse events (4.375 mg/knee, BID, N = 71): 2
- Skin and Subcutaneous Tissue Disorders: percentage of subjects with adverse events (4.375 mg/knee, BID, N = 71): 2.8%
- Skin and Subcutaneous Tissue Disorders: subjects with adverse events (4.375 mg/knee, BID, N = 71): 2
- Subjects with Positive Fecal Occult Blood Test (4.375 mg/knee, BID, N = 71): 5
- Subjects with Positive Fecal Occult Blood Test, percentage (4.375 mg/knee, BID, N = 71): 7.0%
- Throat Irritation: number of adverse events (4.375 mg/knee, BID, N = 71): 2
- Throat Irritation: subjects with adverse events, number (percentage) (4.375 mg/knee, BID, N = 71): 2(2.8%)
- Toothache: number of adverse events (4.375 mg/knee, BID, N = 71): 2
- Toothache: percentage of subjects with adverse events (4.375 mg/knee, BID, N = 71): 2.8%
- Toothache: subjects with adverse events (4.375 mg/knee, BID, N = 71): 2
- Transaminases Increased: number of adverse events (4.375 mg/knee, BID, N = 71): 1
- Transaminases Increased: percentage of subjects with adverse events (4.375 mg/knee, BID, N = 71): 1.4%
- Transaminases Increased: subjects with adverse events (4.375 mg/knee, BID, N = 71): 1
- Upper Respiratory Tract Infection: number of adverse events (4.375 mg/knee, BID, N = 71): 12
- Urinary Tract Infection: number of adverse events (4.375 mg/knee, BID, N = 71): 8
- Urinary Tract Infection: subjects with adverse events, number (percentage) (4.375 mg/knee, BID, N = 71): 8(11.3%)
- Vascular Disorders: number of adverse events (4.375 mg/knee, BID, N = 71): 1
- Vascular Disorders: percentage of subjects with adverse events (4.375 mg/knee, BID, N = 71): 1.4%
- Vascular Disorders: subjects with adverse events (4.375 mg/knee, BID, N = 71): 1
- White Blood Cell Count Decreased: number of adverse events (4.375 mg/knee, BID, N = 71): 2
- White Blood Cell Count Decreased: percentage of subjects with adverse events (4.375 mg/knee, BID, N = 71): 2.8%
- White Blood Cell Count Decreased: subjects with adverse events (4.375 mg/knee, BID, N = 71): 2
- Serious Treatment-emergent Adverse Event: Duration [2]: < 11 days
- Serious Treatment-emergent Adverse Event: SAE Criteria [2]: 6
- Serious Treatment-emergent Adverse Event: Severity [2]: Severe
- Serious Treatment-emergent Adverse Event: Relationship to Study Drug (8.75 mg, BID, subject 279/08/M66, Transient Ischemic Attack, cell wraps: Possible / unrelated): Possible
- Serious Treatment-emergent Adverse Event: Outcome (8.75 mg, BID, subject 279/08/M66, Transient Ischemic Attack, cell wraps: Recovered/ resolved): Recovered/
- Serious Treatment-emergent Adverse Event (8.75 mg, BID, subject 279/08/M66, [Thrombosis] (Vascular Disorders)): Transient Ischemic Attack
- GI disorders incidence rate (8.75 mg/knee (BID)): 14.3%
- incidence rate of AEs possibly, probably, or definitely related to study drug (8.75 mg/knee (BID)): 41.4%
- infections and infestations incidence rate (8.75 mg/knee (BID)): 28.6%
- positive fecal occult blood test incidence rate (8.75 mg/knee (BID)): 7.1%
- Abdominal Discomfort: number of adverse events (8.75 mg/knee, BID, N = 70): 4
